Data reported in patent US7335663B2, “Heteroaryl compounds which inhibit leukocyte adhesion mediated by α4 integrins” (Elan Pharmaceuticals, Inc., priority 2002, dated 2008).

Legend:
α4β1 Integrin = biological target: T1, α4β1 Integrin (Homo sapiens, UniProt P05556+P13612); assay: α4β1 Integrin Adhesion Assay: Jurkat cell adhesion to human plasma fibronectin; type: cell-based; conditions: Jurkat cells
T1 construct: endogenous in cells; host or cells: Jurkat cells
Protocol: 96 well plates (Costar 3590 EIA plates) were coated with human fibronectin (Gibco/BRL, cat #33016-023) at a concentration of 10 μg/mL overnight at 4° C. The plates were then blocked with a solution of bovine serum albumin (BSA; 0.3%) in saline. Jurkat™ cells (maintained in log phase growth) were labeled with Calcein AM according to the manufacturer's instructions, and suspended at a concentration of 2×10^6 cells/mL in Hepes/Saline/BSA. The cells were then exposed to test and control compounds for 30 minutes at room temperature before transfer to individual wells of the fibronectin coated plate. Adhesion was allowed to occur for 35 minutes at 37° C. The wells were then washed by gentle aspiration and pipetting with fresh saline. Fluorescence associated with the remaining adherent cells was quantified using a fluorescence plate reader at EX 485/EM 530.
Cell cultures were prepared by first splitting the stationary phase Jurkat™ cells at 1:10 on day one, and 1:2 on day two to perform assay on day 3. The cells split 1:10 on day one were split 1:4 on day 3 for a day 4 assay.
The assay plates were prepared by first making a working solution of Gibco/BRL Human Fibronectin (cat # 33016-023) in PBS++, at 10 μg/mL.
A Costar 3590 EIA plate was then coated with 50 μL/well for 2 hours at room temperature (thought it can also be left overnight at 4° C). Finally the plate was asperated and blocked with Hepes/Saline Buffer, 100 μL/well, for 1 hour at RT followed by washing three times with 150 μL of PBS++.
Compound dilutions were accomplished by preparing 1:3 serial dilutions of compounds as follows. For each plate (4 compounds/plate) 600 μL were added to 4 Bio-Rad Titertubes in a Titertube rack. Enough compound was added to each appropriate tube to give a 2× concentration using methods well known in the art. Using Falcon Flexiplates, 100 μL of Hepes/Saline buffer or human serum were added to rows B through G. A multi-channel pipetter set to 180 μL was used to with four tips spaced evenly the pipetter. Each set of four tubes was mixed 5 times and 180 μL, of 2× compound was transferred to the first column of each compound dilution in Row B, leaving Row A empty. 180 μL were added to the other wells in Row A. Serial dilutions were performed down the plate by transferring 50 μL to the next dilution and mixing 5 times, changing tips each time after mixing. Dilutions were stopped at Row F. Row G had no compound present.
A 20 μg/mL solution in Hepes/Saline buffer or human serum, of 21/6 antibody was the positive control and was set aside in a reagent trough to add to cell suspension plate.
The cell staining was accomplished by first harvesting the log-phase Jurkat™ cells by centrifugation in 50 mL tubes (1100 rpm for 5 minutes). The cells were resuspended in 50 mL PBS++, spun, and resuspend in 20 mL PBS++. The cells were stained by adding 20 μL of Calcein AM for 30 minutes R.T. The volume was brought to 50 mL with Hepes/Saline buffer and the cells were counted, spun, and resuspend to 2×10^6 cells/mL in Hepes/Saline buffer or human serum.
The compounds were incubated using the following procedure. In a new flexiplate, 65 μL of stained cells were added to Rows B through H. Then 65 μL of 2× compounds were added to the appropriate rows following the plate setup and mixed 3×. 65 μL of 2×-21/6 antibody were added to Row H and mixed 3×. Finally the plate was incubated at room temperature for 30 minutes.
Fibronectin adhesion was measured using a fluorescent plate reader at EX 485/EM 530 after the following work up procedure. After incubation, the cells were mixed 3× and 100 μL were transferred to the Fibronectin coated plates and incubated at 37° C. for about 35 minutes. Each plate was washed, row by row, by gently pipetting 100 μL of R.T. PBS++ down the sides of the wells and turning the plate 90 degrees to aspirate. This procedure was repeated for a total of 3 washes. Each well was filled with 100 μL after washing by pipetting down the side of the well. […]

[1] = Cassette dosing and serum analysis for determination of oral bioavailability; type: in vivo, Sprague Dawley (SD) rats; conditions: rats, oral cassette of 6 compounds, total dose 10 mg/kg, plasma samples at 4, 8 and 12 h
Protocol: The oral bioavailability was screened by dosing rats with a cassette, i.e. mixture of 6 compounds per dosing solution. The cassette included 5 test articles and a standard compound, for a total dose of 10 mg/kg. Each compound/test article was converted to the sodium salt with equimolar 1 N NaOH and dissolved in water at 2 mg/mL. The cassette was prepared by mixing equal volumes of each of the six solutions. The cassette dosing solution was mixed well and then the pH was adjusted to 7.5-9. The dosing solution was prepared the day before the study and stirred overnight at room temperature.
Male Sprague Dawley (SD) rats from Charles River Laboratories, 6-8 weeks old were used in this screen. Rats were quarantined for at least one day and had continuous access to food and water. On the night before the administration of the cassette, the rats were fasted for approximately 16 h.
Four SD rats were assigned in each cassette. A single dose of the dosing solution was administered orally to each rat. The dosing volume (5 mL/kg) and time were recorded and rats were fed 2 h after dosing.
Blood samples were collected via cardiac puncture at the following time points: 4 h, 8 h and 12 h. Immediately prior to blood collection, rats were anesthetized with CO2 gas within 10-20 seconds. After the 12-hour samples were collected, the rats were euthanized via CO2 asphyxiation followed by cervical dislocation.
Blood samples were kept in heparinized microtainer tubes under sub-ambient temperature (4° C.) before they were processed. Blood samples were centrifuged (10000 rpm for 5 minutes) and plasma samples were removed and stored in a −20° C. freezer until analyzed for drug levels. Drug levels in the plasma were analyzed using the following protocol for direct plasma precipitation.
The in vivo plasma samples were prepared in a 1.5 mL 96-well plate, by adding, in order, 100 μL of the test plasma, 150 μL of methanol, followed by vortexing for 10-20 seconds. 150 μL of 0.05 ng/μL of an Internal Standard in acetonitrile were added and vortexed for 30 seconds.
The standard curve samples were prepared in a 1.5 mL 96-well plate, by adding, in order, 100 μL of control mouse plasma, followed by 150 μL of methanol and vortexing for 10-20 seconds. 150 μL of 0.05 ng/μL of an Internal Standard in acetonitrile were added and vortexed for 30 seconds. The samples were spiked with 0-200 ng (10 concentrations) of the compound of interest in 50% methanol to obtain a standard curve range of 0.5 ng/mL-2,000 ng/mL. Again, the sample was vortexed for 30 seconds.
The samples were then spun for 20-30 minutes at 3000 rpm in an Eppendorf microfuge before 80-90% of supernatant was transferred into a clean 96-well plate. The organic solvent was then evaporated until the samples were dry (under N2 at 40° C./30-60 min (ZymarkTurbovap)).
The residue was then dissolved in 200-600 L mobile phase (50% CH3OH/0.1% TFA). LC/MS/MS was then run using a PE-Sciex API-3000 triple quadurpole mass spectrometer (SN0749707), Perkin-Elmer, Series200auto-sampler, and shimadzu 10A pump. Acquisition was done with PE-Sciex Analyst (v1.1) and data analysis and quantification were accomplished using PE-Sciex Analyst (v1.1). A 5-50 μL sample volume was injected onto a reverse phase ThermoHypersil DASH-18 column (Keystone 2.0×20 mm, 5 μm, PN: 8823025-701) using a mobile phase of 25% CH3OH, 0.1% TFA-100% CH3OH, 0.1% TFA. The run time was about 8 minutes at a flow rate of about 300 μL/minutes.
The Area Under the Curve (AUC) was calculated using the linear trapezoidal rule from t=0 to the last sampling time tx (see Handbook of Basic Pharmacokinetics, Wolfgang A. Ritschel and Gregory L. Kearns, 5th ed, 1999). AUC^0−+tx=S((Cn+Cn+1)/2))·(tn+1−tn)[(μg/mL)h]
In the case of the cassette dosing paradigm, samples at 4, 8 and 12 h post extravascular dosing, the AUC was calculated from t=0 to t=12 h.

T1 sequence (P13612 34-1032): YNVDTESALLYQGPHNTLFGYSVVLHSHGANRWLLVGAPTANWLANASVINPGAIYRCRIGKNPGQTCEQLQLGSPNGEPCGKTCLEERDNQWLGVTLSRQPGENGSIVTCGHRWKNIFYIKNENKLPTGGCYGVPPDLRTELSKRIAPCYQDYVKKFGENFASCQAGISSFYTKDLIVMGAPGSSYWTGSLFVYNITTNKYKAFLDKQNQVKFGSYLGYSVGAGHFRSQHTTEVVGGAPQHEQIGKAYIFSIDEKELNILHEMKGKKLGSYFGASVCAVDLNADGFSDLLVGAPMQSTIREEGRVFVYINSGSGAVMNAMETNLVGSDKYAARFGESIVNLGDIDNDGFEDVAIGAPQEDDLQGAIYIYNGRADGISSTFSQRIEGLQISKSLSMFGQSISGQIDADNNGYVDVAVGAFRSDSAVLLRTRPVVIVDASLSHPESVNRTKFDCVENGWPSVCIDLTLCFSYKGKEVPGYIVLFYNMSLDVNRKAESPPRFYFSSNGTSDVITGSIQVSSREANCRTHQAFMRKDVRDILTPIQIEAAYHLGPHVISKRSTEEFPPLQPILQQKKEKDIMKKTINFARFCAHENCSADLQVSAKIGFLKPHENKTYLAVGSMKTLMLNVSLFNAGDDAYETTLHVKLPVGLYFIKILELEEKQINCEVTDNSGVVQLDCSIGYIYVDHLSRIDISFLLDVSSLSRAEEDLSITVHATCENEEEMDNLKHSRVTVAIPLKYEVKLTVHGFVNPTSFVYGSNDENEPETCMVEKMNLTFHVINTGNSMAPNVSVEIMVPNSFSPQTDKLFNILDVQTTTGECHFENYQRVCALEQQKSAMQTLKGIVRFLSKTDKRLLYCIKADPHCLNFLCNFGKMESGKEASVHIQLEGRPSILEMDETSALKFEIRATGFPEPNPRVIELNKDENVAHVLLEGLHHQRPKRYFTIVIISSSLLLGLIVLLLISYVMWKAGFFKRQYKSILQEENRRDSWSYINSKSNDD
T1 sequence (P05556 21-798): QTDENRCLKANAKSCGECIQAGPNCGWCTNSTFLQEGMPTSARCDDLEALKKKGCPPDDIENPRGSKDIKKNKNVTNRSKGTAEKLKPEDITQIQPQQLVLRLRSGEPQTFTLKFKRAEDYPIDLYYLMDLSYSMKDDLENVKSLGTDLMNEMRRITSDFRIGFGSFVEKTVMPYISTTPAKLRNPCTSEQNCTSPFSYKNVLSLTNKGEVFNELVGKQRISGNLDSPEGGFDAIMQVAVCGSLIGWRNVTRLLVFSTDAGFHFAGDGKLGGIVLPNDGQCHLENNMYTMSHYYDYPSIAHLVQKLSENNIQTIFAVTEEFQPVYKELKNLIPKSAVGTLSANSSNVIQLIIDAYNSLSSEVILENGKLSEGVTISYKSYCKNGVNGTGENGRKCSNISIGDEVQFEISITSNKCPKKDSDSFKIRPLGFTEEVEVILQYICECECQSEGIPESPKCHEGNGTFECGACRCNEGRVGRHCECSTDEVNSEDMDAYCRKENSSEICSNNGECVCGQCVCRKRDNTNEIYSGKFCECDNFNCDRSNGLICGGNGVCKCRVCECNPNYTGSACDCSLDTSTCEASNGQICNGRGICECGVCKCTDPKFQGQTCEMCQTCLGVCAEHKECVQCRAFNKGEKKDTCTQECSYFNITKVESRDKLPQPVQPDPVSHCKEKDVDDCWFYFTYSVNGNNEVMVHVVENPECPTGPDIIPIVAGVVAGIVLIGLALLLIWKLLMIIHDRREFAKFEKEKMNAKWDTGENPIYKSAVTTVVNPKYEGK

| Substance | IC50, Cell Adhesion to Human Plasma Fibronectin (With human serum) (α4β1 Integrin) [µg/mL] | IC50, Cell Adhesion to Human Plasma Fibronectin (Without the human serum) (α4β1 Integrin) [µg/mL] | AUC (average AUC 0-12 h) [1] |
| --- | --- | --- | --- |
| 2-{2-diethylamino-5-[(2,3-difluorobenzenesulfonyl)ethylamino]pyrimidin-4-ylamino}-3-(4-dimethylcarbamoyloxyphenyl)propionic acid [Example 26] | 0.01848 | 0.001 | 0.3392 (μg/mL)h |
| 2-{2-diethylamino-5-[(2,4-difluorobenzenesulfonyl)ethylamino]pyrimidin-4-ylamino}-3-(4-dimethylcarbamoyloxyphenyl)propionic acid [Example 18] | 0.025 | 0.002 | 0.2578 (μg/mL)h |
| 2-{2-diethylamino-5-[(2,4-difluorobenzenesulfonyl)methylamino]pyrimidin-4-ylamino}-3-(4-dimethylcarbamoyloxyphenyl)propionic acid [Example 17] | 0.024 | 0.001 | 1.0075 (μg/mL)h |
| 2-{2-diethylamino-5-[(2,5-difluorobenzenesulfonyl)methylamino]pyrimidin-4-ylamino}-3-(4-dimethylcarbamoyloxyphenyl)propionic acid [Example 25] | 6.72 | 0.006 | 0.4559 (μg/mL)h |
| 2-{2-diethylamino-5-[(3,4-dichlorobenzenesulfonyl)methylamino]pyrimidin-4-ylamino}-3-(4-dimethylcarbamoyloxyphenyl)propionic acid [Example 4] | 0.4 | 0.004 | 0.5965 (μg/mL)h |
| 2-{2-diethylamino-5-[(3,4-difluorobenzenesulfonyl)ethylamino]pyrimidin-4-ylamino}-3-(4-dimethylcarbamoyloxyphenyl)propionic acid [Example 12] | 0.06 | 0.003 | 0.8447 (μg/mL)h |
| 2-{2-diethylamino-5-[(3,5-dichlorobenzenesulfonyl)ethylamino]pyrimidin-4-ylamino}-3-(4-dimethylcarbamoyloxyphenyl)propionic acid [Example 20] | 0.07751 | 0.005114 | 0.0536 (μg/mL)h |
| 2-{2-diethylamino-5-[(3,5-dichlorobenzenesulfonyl)methylamino]pyrimidin-4-ylamino}-3-(4-dimethylcarbamoyloxyphenyl)propionic acid [Example 19] | 0.08535 | 0.003393 | 0.0697 (μg/mL)h |
| 2-{2-diethylamino-5-[(3,5-difluorobenzenesulfonyl)ethylamino]pyrimidin-4-ylamino}-3-(4-dimethylcarbamoyloxyphenyl)propionic acid [Example 16] | 0.06707 | 0.001035 | 0.1721 (μg/mL)h |
| 2-{2-diethylamino-5-[(3,5-difluorobenzenesulfonyl)methylamino]pyrimidin-4-ylamino}-3-(4-dimethylcarbamoyloxyphenyl)propionic acid [Example 15] | 0.1243 | 0.000915 | 0.2098 (μg/mL)h |
| 2-{2-diethylamino-5-[(3-fluorobenzenesulfonyl)methylamino]pyrimidin-4-ylamino}-3-(4-dimethylcarbamoyloxyphenyl)propionic acid [Example 7] | 0.5869 | 0.000821 | 0.717 (μg/mL)h |
